Assay results: US20250345317A1, “New pharmaceutical compounds, methods and uses thereof” (BBIT-THERAPEUTICS, LDA., priority 2020, published 2025)

Columns and labels:
Format in all cases: cell-based, human
T47D = test: Growth inhibition, SRB assay, T47D; conditions: BRCA1 wild-type, 48 hours (second Table 2)
From the text: (§1) Table 2 refers to the growth inhibitory effect of COMP, olaparib and cisplatin (CDDP) in a panel of human immortalized breast (T47D, MCF-7, MDA-MB-231, MDA-MB-468, SK-BR-3 and HCC1937), ovarian and endocervical (OCVAR, SKOV-3, […],IGROV-1 and HeLa), pancreatic (PANC-1 and MIAPACA), neuroblastoma (SHSY-5Y), lung (NCI-H460), prostate (VCaP) melanoma (A375 and SK-MEL-5) and glioblastoma (SF-208) cancer cells, immortalized normal MCF10a and HFF1 human cells, and patient-derived ovarian (PD-OVCA #1, #9, #41, #49 and #62) cancer cells. […] Data are mean±SEM (n=5).
(§2) In an embodiment, IC50 values were determined by Sulforhodamine B (SRB) or MTS [3-(4,5-dimethylthiazol-2-yl)-5-(3-carboxymethoxyphenyl)-2-(4-sulfophenyl)-2H-tetrazolium] assay in immortalized and PD-OVCA cells, respectively. Cancer cells were plated in 96-well plates and incubated for 24 hours. Cells were then exposed to serial dilutions of compounds for 48 hours. The solvent DMSO corresponding to the maximum concentration used in these assays (0.025%) was included as control. Results are the mean±S.E.M. of 3-5 independent experiments.

MCF-7 = test: Growth inhibition, SRB assay, MCF-7; conditions: MCF-7, BRCA1 wild-type, 48 hours (second Table 2)
From the text: as §1, §2

OVCAR-3 = test: Growth inhibition, SRB assay, OVCAR-3; conditions: OVCAR-3, BRCA1 wild-type, 48 hours (second Table 2)
From the text: as §1, §2

SKOV-3 = test: Growth inhibition, SRB assay, SKOV-3; conditions: Skov-3, BRCA1 wild-type, 48 hours (second Table 2)
From the text: as §1, §2

MDA-MB-231 = test: Growth inhibition, SRB assay, MDA-MB-231; conditions: MDA-MB-231, BRCA1 loss of heterozygosity, 48 hours (second Table 2)
From the text: as §1, §2

MDA-MB-468 = test: Growth inhibition, SRB assay, MDA-MB-468; conditions: MDA-MB-468, BRCA1 loss of heterozygosity, 48 hours (second Table 2)
From the text: as §1, §2

SK-BR-3 = test: Growth inhibition, SRB assay, SK-BR-3; conditions: SK-BR-3, BRCA1 loss of heterozygosity, 48 hours (second Table 2)
From the text: as §1, §2

HCC1937 (5382insC) = test: Growth inhibition, SRB assay, HCC1937; conditions: HCC1937, BRCA1 mutant, 48 hours (second Table 2)
From the text: as §1, §2

[1] = system: IGROV-1 (mutBRCA1 280delA; mutBRCA2 3320del1); test: Growth inhibition, SRB assay, IGROV-1; conditions: Igrov-1, BRCA1 mutant, 48 hours (second Table 2)
From the text: as §1, §2

HFF-1 = test: Growth inhibition, SRB assay, normal HFF-1 cells; conditions: HFF1 normal cells, 48 hours (second Table 2)
From the text: as §1, §2

Compound | IC50 (T47D; Homo sapiens, 48 h) | IC50 (MCF-7; Homo sapiens, MCF7, 48 h) | IC50 (OVCAR-3; Homo sapiens, OVCAR-3, 48 h) | IC50 (SKOV-3; Homo sapiens, SK-OV-3, 48 h) | IC50 (MDA-MB-231; Homo sapiens, MDA-MB-231, 48 h) | IC50 (MDA-MB-468; Homo sapiens, MDA-MB-468, 48 h) | IC50 (SK-BR-3; Homo sapiens, SK-BR-3, 48 h) | IC50 (HCC1937 (5382insC); Homo sapiens, HCC1937, 48 h) | IC50 ([1]; Homo sapiens, IGROV-1, 48 h) | IC50 (HFF-1; Homo sapiens, HFF-1, 48 h) | IC50 (OVCAR-3) | IC50 (MDA-MB-468) | IC50 (T47D) | IC50 (MCF-7) | IC50 (SKOV-3) | IC50 (MDA-MB-231) | IC50 (SK-BR-3) | IC50 (HCC1937 (5382insC)) | IC50 [1] | IC50 (HFF-1)
CC[C@@H]1CN(C)C2Cc3c([nH]c4ccccc34)[C@@H](OC(=O)C34CC5CC(CC(C5)C3)C4)C[C@H]1[C@@H]2C(=O)OC [BE1] | > 50 µM | > 50 µM | > 50 µM | > 50 µM | > 50 µM | > 50 µM | > 50 µM | > 50 µM | > 50 µM | > 50 µM |  |  |  |  |  |  |  |  |  | 
C/C=C/C(=O)O[C@@H]1C[C@@H]2[C@@H](CC)CN(C)C(Cc3c1[nH]c1ccccc31)[C@H]2C(=O)OC [DE1] | > 50 µM | > 50 µM | > 50 µM | > 50 µM | > 50 µM | > 50 µM | > 50 µM | > 50 µM | > 50 µM | > 50 µM |  |  |  |  |  |  |  |  |  | 
CCC1CN(C)[C@H]2Cc3c([nH]c4ccccc34)/C(=N/N)C[C@H]1[C@@H]2C(=O)OC (stereo partly drawn) [DH1] | > 50 µM | > 50 µM | > 50 µM | > 50 µM | > 50 µM | > 50 µM | > 50 µM | 32.1 µM | 26 µM | > 50 µM |  |  |  |  |  |  |  |  |  | 
CCC1CN(C)[C@H]2Cc3c([nH]c4ccccc34)/C(=N/Nc3ccccc3)C[C@H]1[C@@H]2C(=O)OC (stereo partly drawn) [DH2] | 23 µM | > 50 µM |  | 18.8 µM | 23.2 µM |  | 18 µM | 19.5 µM | 12.7 µM | 20.5 µM | > 50 µM | 31.5 µM |  |  |  |  |  |  |  | 
CCC1CN(C)[C@H]2Cc3c([nH]c4ccccc34)/C(=N/Nc3cnccn3)C[C@H]1[C@@H]2C(=O)OC (stereo partly drawn) [DH3] | > 50 µM | > 50 µM | > 50 µM | 27.5 µM | 49 µM | 40 µM | > 50 µM | > 50 µM | 24.5 µM | 26.5 µM |  |  |  |  |  |  |  |  |  | 
CCC1CN(C)[C@H]2Cc3c([nH]c4ccccc34)C(O)C[C@H]1C2C(=O)OC (stereo partly drawn) [DOH] | > 50 µM | > 50 µM | > 50 µM | > 50 µM | > 50 µM | > 50 µM | > 50 µM | > 50 µM | > 50 µM | > 50 µM |  |  |  |  |  |  |  |  |  | 
CCC1CN(C)[C@H]2Cc3c([nH]c4ccccc34)/C(=N/NC(=O)OCc3ccc(OC)cc3)C[C@H]1C2C(=O)OC (stereo partly drawn) [DS2] | 25.5 µM | 39.3 µM | 43.3 µM | 47.5 µM | 31 µM | 33 µM | 29.5 µM | 27 µM | 28.5 µM | 45.5 µM |  |  |  |  |  |  |  |  |  | 
CC[C@H]1CN(C)C2Cc3c([nH]c4ccccc34)/C(=N/NC(=S)NCc3ccccn3)C[C@H]1[C@@H]2C(=O)OC [DS3] | 27.5 µM | 14.4 µM | 22.2 µM | 28.7 µM | 8.7 µM | 15.5 µM | 20.5 µM | 19.5 µM | 17.5 µM | 18.6 µM |  |  |  |  |  |  |  |  |  | 
CCC1CN(C)[C@H]2Cc3c([nH]c4ccccc34)C(=S)C[C@H]1C2C(=O)OC (stereo partly drawn) [DTHIO] | > 50 µM | > 50 µM | > 50 µM | > 50 µM | > 50 µM | > 50 µM | > 50 µM | > 50 µM | > 50 µM | > 50 µM |  |  |  |  |  |  |  |  |  | 
CCC1CN(C)[C@H]2Cc3c([nH]c4ccccc34)C(=O)C[C@H]1[C@@H]2C(=O)OC (stereo partly drawn) [D] | > 50 µM | > 50 µM | > 50 µM | > 50 µM | > 50 µM | > 50 µM | > 50 µM | > 50 µM | > 50 µM | > 50 µM |  |  |  |  |  |  |  |  |  | 
CCC1CN(C)[C@H]2Cc3c([nH]c4ccccc34)/C(=N/Nc3ccccc3)C[C@H]1[C@@H]2C(=O)OC (stereo partly drawn) [TH2] |  |  |  |  |  |  |  |  |  |  | 13.5 µM | 11.5 µM | 22.5 µM | 25.6 µM | 23.5 µM | 19 µM | 14.5 µM | 25.5 µM | 9.7 µM | 19.3 µM
CCC1CN(C)[C@H]2Cc3c([nH]c4ccccc34)/C(=N/Nc3ccc(Br)cn3)C[C@H]1[C@@H]2C(=O)OC (stereo partly drawn) [TH4] | 23.5 µM | 12.5 µM | 22 µM | 14.5 µM | 13.7 µM | 16 µM | 16 µM | 22.5 µM | 14 µM | 16.5 µM |  |  |  |  |  |  |  |  |  | 
